Counter-ions that a name gives are not always drawn.
Tests used:
[1] = biological target: pseudo-kinase domain (JH2, amino-acids 536-812) of human V617F mutant JAK2 (Homo sapiens (Human), UniProt O60674, F794H/V617F/W659A/W777A); assay: JAK2 LanthaScreen JH2-V617F Binding Assay; conditions: JAK2 JH2-V617F 0.26 nM, 50 nM fluorescent tracer, 1 hour at 25° C.; read-out: JH2 BIND V617F IC50
Experimental: The assay was conducted in black 384-well polystyrene plates in a final reaction volume of 20 μL. […] Non-specific binding was accessed in the presence of 2 mM ATP. After incubation for 1 hour at 25° C., LanthaScreen signals were read on a PHERAstar FS plate reader (BMG LABTECH). Data was analyzed with IDBS XLfit and GraphPad Prism 5.0 software using a four parameter dose response curve to determine IC50 for each compound.

[2] = biological target: catalytic domain (JH1, amino acids 826-1132) of human JAK2 (Homo sapiens (Human), UniProt O60674); assay: JAK2 LanthaScreen JH1 Binding Assay; conditions: JAK2 JH1 1.5 nM, 50 nM fluorescent tracer, 2 hours at 25° C.; read-out: JH1 BIND IC50
Experimental: Example A. JAK2 LanthaScreen JH1 Binding Assay
(§1) JAK2 JH1 binding assay utilizes catalytic domain (JH1, amino acids 826-1132) of human JAK2 expressed as N-terminal FLAG-tagged, biotinylated protein in a baculovirus expression system (Carna Biosciences, Product #08-445-20N). The assay was conducted in black 384-well polystyrene plates in a final reaction volume of 20 μL. JAK2 JH1 (1.5 nM) was incubated with compounds (100 nL serially diluted in DMSO) in the presence of 50 nM Fluorescent JAK2-JH1 Tracer and 0.5 nM Streptavidin-Tb cryptate (Cisbio Part #610SATLB) in assay buffer (50 mM Tris, pH=7.5, 10 mM MgCl2, 0.01% Brij-35, 0.1% BSA, 1 mM EGTA, 5% Glycerol and 5 mM DTT). Non-specific binding was accessed in the presence of 2 mM ATP. After incubation for 2 hours at 25° C., LanthaScreen signals were read on a PHERAstar FS plate reader (BMG LABTECH). Data was analyzed with IDBS XLfit and GraphPad Prism 5.0 software using a four parameter dose response curve to determine IC50 for each compound.

[3] = biological target: catalytic domain (JH1, amino acids 808-1132) of human JAK2 (Homo sapiens (Human), UniProt O60674); assay: JAK2 HTRF Enzyme Activity Assay; format: biochemical; conditions: JAK2 0.015 nM, ATP (30 μM or 1 mM), 60 minutes at 25° C.
Experimental: Example D. JAK2 HTRF Enzyme Activity Assay
JAK2 enzyme activity assays utilize catalytic domain (JH1, amino acids 808-1132) of human JAK2 expressed as N-terminal His-tagged protein in a baculovirus expression system (BPS Bioscience, Catalog #40450). The assays was conducted in black 384-well polystyrene plates in a final reaction volume of 20 μL. JAK2 (0.015 nM) was incubated with compounds (100 nL serially diluted in DMSO) in the presence of ATP (30 μM or 1 mM) and 500 nM Biotin-labeled […] (SEQ ID NO.: 1) peptide (BioSource International, custom synthesis) in assay buffer (50 mM Tris, pH=7.5, 10 mM MgCl2, 0.01% Brij-35, 0.1% BSA, 1 mM EGTA, 5% Glycerol and 5 mM DTT) for 60 minutes at 25° C. The reactions were stopped by the addition of 10 μL of detection buffer (50 mM Tris, pH 7.8, 0.5 mg/mL BSA, 150 mM NaCl), supplemented with EDTA, LANCE Eu-W1024 anti-phosphotyrosine (PY20), (PerkinElmer, Catalog #AD0067) and Streptavidin SureLight APC (PerkinElmer Catalog #CR130-100), for a final concentration of 15 mM, 1.5 nM and 75 nM, respectively. HTRF signals were read after 30 minutes incubation at room temperature on a PHERAstar FS plate reader (BMG LABTECH). Data was analyzed with IDBS XLfit and GraphPad Prism 5.0 software using a four parameter dose response curve to determine IC50 for each compound.

[4] = biological target: pseudo-kinase domain (JH2, amino-acids 536-812) of human Wild Type JAK2 (Homo sapiens (Human), UniProt O60674, F794H/W659A/W777A); assay: JAK2 LanthaScreen JH2-WT Binding Assay; conditions: JAK2 JH2-WT 0.145 nM, 50 nM fluorescent tracer, 1 hour at 25° C.; read-out: JH2 BIND WT IC50
Experimental: Example B. JAK2 LanthaScreen JH2-WT Binding Assay
as §1, with “The” for “JAK2 JH1 binding assay utilizes catalytic domain (JH1, amino acids 826-1132) of human JAK2 expressed as N-terminal FLAG-tagged, biotinylated protein in a baculovirus expression system (Carna Biosciences, Product #08-445-20N). The”, “JH2-WT (0.145” for “JH1 (1.5”, “JAK2-JH2” for “JAK2-JH1”, “Tracer (MedChem Express Catalog #HY-102055)” for “Tracer”, “0.25” for “0.5”, “1 hour” for “2 hours”

Chain of pseudo-kinase domain (JH2, amino-acids 536-812) of human V617F mutant JAK2 (O60674 536-812 V617F/W659A/W777A/F794H): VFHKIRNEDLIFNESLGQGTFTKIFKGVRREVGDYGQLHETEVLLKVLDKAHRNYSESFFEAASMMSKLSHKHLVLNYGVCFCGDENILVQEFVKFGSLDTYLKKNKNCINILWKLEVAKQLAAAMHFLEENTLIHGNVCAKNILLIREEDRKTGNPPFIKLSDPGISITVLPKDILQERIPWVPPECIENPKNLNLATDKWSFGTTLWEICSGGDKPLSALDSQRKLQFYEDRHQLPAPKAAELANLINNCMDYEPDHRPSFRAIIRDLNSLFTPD
Chain of pseudo-kinase domain (JH2, amino-acids 536-812) of human Wild Type JAK2 (O60674 536-812 W659A/W777A/F794H): as the sequence (O60674 536-812 V617F/W659A/W777A/F794H) above, with F82V counted along it
Chain of catalytic domain (JH1, amino acids 808-1132) of human JAK2 (O60674 808-1132): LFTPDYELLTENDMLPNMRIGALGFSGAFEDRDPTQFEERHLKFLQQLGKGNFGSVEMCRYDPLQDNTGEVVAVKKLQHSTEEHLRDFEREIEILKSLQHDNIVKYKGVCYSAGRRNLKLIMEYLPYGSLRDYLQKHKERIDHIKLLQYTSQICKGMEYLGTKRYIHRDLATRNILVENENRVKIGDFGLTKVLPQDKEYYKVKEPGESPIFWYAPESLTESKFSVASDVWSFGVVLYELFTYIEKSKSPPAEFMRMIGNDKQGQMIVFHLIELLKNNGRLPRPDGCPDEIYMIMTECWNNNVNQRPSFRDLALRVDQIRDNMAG
Chain of catalytic domain (JH1, amino acids 826-1132) of human JAK2 (O60674 826-1132): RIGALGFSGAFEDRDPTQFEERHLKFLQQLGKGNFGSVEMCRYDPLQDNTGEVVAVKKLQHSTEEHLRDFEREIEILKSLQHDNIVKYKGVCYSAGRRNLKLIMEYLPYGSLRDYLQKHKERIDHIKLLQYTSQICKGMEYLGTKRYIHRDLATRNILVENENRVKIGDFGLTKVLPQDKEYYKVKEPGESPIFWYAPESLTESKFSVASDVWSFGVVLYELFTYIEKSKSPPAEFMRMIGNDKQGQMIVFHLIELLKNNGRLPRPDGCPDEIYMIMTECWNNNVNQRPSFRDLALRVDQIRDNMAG

SMILES | IC50 [1] | IC50 [2] | IC50 [3] | IC50 [4]
CN1C(=O)N(C(C)(C)C)Cc2c1cnc1[nH]c(-c3ccc(CN4CCC(S(C)(=O)=O)CC4)cc3)c(-c3ccc(C(=O)NCC4(C#N)CC4)cc3)c21 [Example 14, 4-(2-(tert-Butyl)-4-methyl-8-(4-((4-(methylsulfonyl)piperidin-1-yl)methyl)phenyl)-3-oxo-2,3,4,7-tetrahydro-1H-pyrrolo[3′,2′:5,6]pyrido[3,4-d]pyrimidin-9-yl)-N-((1-cyanocyclopropyl)methyl)benzamide Trifluoroacetic Acid] | ≤ 100 nM | ≤ 100 nM | ≤ 100 nM | ≤ 100 nM
COC(=O)c1c(-c2ccc(CN3CCC(S(C)(=O)=O)CC3)cc2)[nH]c2ncc3c(c12)CN(c1ccc(C(=O)O)cc1)C(=O)N3C [Example 15, 4-(9-(Methoxycarbonyl)-4-methyl-8-(4-((4-(methylsulfonyl)piperidin-1-yl)methyl)phenyl)-3-oxo-1,3,4,7-tetrahydro-2H-pyrrolo[3′,2′:5,6]pyrido[3,4-d]pyrimidin-2-yl)benzoic acid Trifluoroacetic Acid Salt] | 100 to 500 nM | > 2500 nM | > 2500 nM | 100 to 500 nM
CC(=O)NCc1ccc(-c2c(-c3ccc(CN4CCC(S(C)(=O)=O)CC4)cc3)[nH]c3ncc4c(c23)CN(C(C)(C)C)C(=O)N4C)cc1 [Example 16, N-(4-(2-(tert-Butyl)-4-methyl-8-(4-((4-(methylsulfonyl)piperidin-1-yl)methyl)phenyl)-3-oxo-2,3,4,7-tetrahydro-1H-pyrrolo[3′,2′:5,6]pyrido[3,4-d]pyrimidin-9-yl)benzyl)acetamide] | ≤ 100 nM | ≤ 100 nM | ≤ 100 nM | ≤ 100 nM
CNS(=O)(=O)c1ccc(-c2c(-c3ccc(CN4CCC(S(C)(=O)=O)CC4)cc3)[nH]c3ncc4c(c23)CN(C(C)(C)C)C(=O)N4C)cc1 [Example 17, 4-(2-(tert-Butyl)-4-methyl-8-(4-((4-(methylsulfonyl)piperidin-1-yl)methyl)phenyl)-3-oxo-2,3,4,7-tetrahydro-1H-pyrrolo[3′,2′:5,6]pyrido[3,4-d]pyrimidin-9-yl)-N-methylbenzenesulfonamide, trifluoroacetic acid salt] | ≤ 100 nM | ≤ 100 nM | ≤ 100 nM | ≤ 100 nM
CC(=O)N1CCN(c2ccc(-c3c(-c4ccc(CN5CCC(S(C)(=O)=O)CC5)cc4)[nH]c4ncc5c(c34)CN(C(C)(C)C)C(=O)N5C)cc2)CC1 [Example 18, 9-(4-(4-Acetylpiperazin-1-yl)phenyl)-2-(tert-butyl)-4-methyl-8-(4-((4-(methylsulfonyl)piperidin-1-yl)methyl)phenyl)-1,2,4,7-tetrahydro-3H-pyrrolo[3′,2′:5,6]pyrido[3,4-d]pyrimidin-3-one, trifluoroacetic acid salt] | ≤ 100 nM | ≤ 100 nM | ≤ 100 nM | ≤ 100 nM
CC(=O)N1CC=C(c2c(-c3ccc(CN4CCC(S(C)(=O)=O)CC4)cc3)[nH]c3ncc4c(c23)CN(c2ccc(C(=O)O)cc2)C(=O)N4C)CC1 [Example 20, 4-(9-(1-Acetyl-1,2,3,6-tetrahydropyridin-4-yl)-4-methyl-8-(4-((4-(methylsulfonyl)piperidin-1-yl)methyl)phenyl)-3-oxo-1,3,4,7-tetrahydro-2H-pyrrolo[3′,2′:5,6]pyrido[3,4-d]pyrimidin-2-yl)benzoic acid Trifluoroacetic Acid Salt] | ≤ 100 nM | > 2500 nM | > 2500 nM | ≤ 100 nM
CN1C(=O)N(c2ccc(C(=O)O)cc2)Cc2c1cnc1[nH]c(-c3ccc(CN4CCC(S(C)(=O)=O)CC4)cc3)c(-c3ccc(C4(N)CC4)cc3)c21 [Example 21, 4-(9-(4-(1-Aminocyclopropyl)phenyl)-4-methyl-8-(4-((4-(methylsulfonyl)piperidin-1-yl)methyl)phenyl)-3-oxo-1,3,4,7-tetrahydro-2H-pyrrolo[3′,2′:5,6]pyrido[3,4-d]pyrimidin-2-yl)benzoic acid trifluoroacetic acid salt (1:2)] | ≤ 100 nM | 1000 to 2500 nM | > 2500 nM | ≤ 100 nM
CN1C(=O)N(c2ccc(C(=O)O)cc2)Cc2c1cnc1[nH]c(-c3ccc(CN4CCC(S(C)(=O)=O)CC4)cc3)c(-c3ccn(C)c3)c21 [Example 22, 4-(4-Methyl-9-(1-methyl-1H-pyrrol-3-yl)-8-(4-((4-(methylsulfonyl)piperidin-1-yl)methyl)phenyl)-3-oxo-1,3,4,7-tetrahydro-2H-pyrrolo[3′,2′:5,6]pyrido[3,4-d]pyrimidin-2-yl)benzoic acid trifluoroacetic acid salt] | ≤ 100 nM | 1000 to 2500 nM | 1000 to 2500 nM | ≤ 100 nM
CN1C(=O)N(c2ccc(C(=O)O)cc2)Cc2c1cnc1[nH]c(-c3ccc(CN4CCC(S(C)(=O)=O)CC4)cc3)c(C3CC3)c21 [Example 23, 4-(9-Cyclopropyl-4-methyl-8-(4-((4-(methylsulfonyl)piperidin-1-yl)methyl)phenyl)-3-oxo-1,3,4,7-tetrahydro-2H-pyrrolo[3′,2′:5,6]pyrido[3,4-d]pyrimidin-2-yl)benzoic acid, trifluoroacetic acid salt] | ≤ 100 nM | > 2500 nM | > 2500 nM | ≤ 100 nM
CN1C(=O)N(c2ccc(C(=O)O)cc2)Cc2c1cnc1[nH]c(-c3ccc(CN4CCC(S(C)(=O)=O)CC4)cc3)c(C#N)c21 [Example 24, 4-(9-Cyano-4-methyl-8-(4-((4-(methylsulfonyl)piperidin-1-yl)methyl)phenyl)-3-oxo-1,3,4,7-tetrahydro-2H-pyrrolo[3′,2′:5,6]pyrido[3,4-d]pyrimidin-2-yl)benzoic acid Trifluoroacetic Acid Salt] | 100 to 500 nM | > 2500 nM | > 2500 nM | 100 to 500 nM
CN1C(=O)N(c2ccc(C(=O)O)cc2)Cc2c1cnc1[nH]c(-c3ccc(CN4CCC(S(C)(=O)=O)CC4)cc3)c(I)c21 [Example 25, 4-(9-Iodo-4-methyl-8-(4-((4-(methylsulfonyl)piperidin-1-yl)methyl)phenyl)-3-oxo-1,3,4,7-tetrahydro-2H-pyrrolo[3′,2′:5,6]pyrido[3,4-d]pyrimidin-2-yl)benzoic acid Trifluoroacetic Acid Salt] | ≤ 100 nM | 500 to 1000 nM | 1000 to 2500 nM | ≤ 100 nM
